Data as given in patent US20250163119A1, “COMPOUNDS FOR THE TREATMENT OF DIABETES OR OBESITY” (Eli Lilly and Company, priority 2023, published 2025).
“And” between values parts separate entries of the source, which are not always exact repeats. Identical values can stand only once. Like-named read-outs stand apart in the source and are kept apart here. *1 amine or outer side, *2 acyl side, *3 side chain or, on linkers, in order; H or OH if unused. Where a SMILES comes first, the peptide text is derived from it. Side-chain parts run from the residue outwards. [ ]: non-standard residue; d: D form. The star is where a group is joined. C20 diacid = O=C(O)CCCCCCCCCCCCCCCCCCC(=O)*; γGlu = O=C(O)[C@H](CCC(=O)[*:2])N[*:1]; NMeI = CC[C@H](C)[C@H](NC)C(=O)O; αMeL = CC(C)C[C@](C)(N)C(=O)O; AEEA = NCCOCCOCC(=O)O; Aib = CC(C)(N)C(=O)O

Key:
[1] = Pharmacokinetics in Sprague Dawley rats, single subcutaneous or intravenous dose (incl. 10, 30, 100 nmol/kg dose response); format: in vivo; settings: for Tmax: read-out: Tmax
[2] = test system: MHC-II presented peptides on human dendritic cells; test: MAPPS assay (MHC-Associated Peptide Proteomics); format: cell-based; settings: for peptides displayed on MHC-II complexes: human dendritic cells from normal donors; for immunogenicity compared with SEQ ID NO:54: in the MAPPs assay and/or the T cell proliferation assay
Experimental: MAPPS profiles the MHC-II presented peptides on human dendritic cells treated with tested molecules. CD14+ cells, isolated from the PBMCs of normal human donors, were cultured and differentiated into immature DCs by incubation with IL-4 and GM-CSF. On day 4, culture media was replaced with fresh media containing tested molecules. On day 5, LPS was added to transform the cells into mature DCs. On day 6, cells were lysed in RIPA buffer with protease inhibitors. Immunoprecipitation of MHC-II complexes were performed using biotinylated anti-MHC-II antibody coupled to streptavidin beads. The bound complex was eluted and filtered. The isolated MHC-II peptides were analyzed by a mass spectrometer. Peptide identifications were generated by an internal proteomics pipeline using search algorithms with no enzyme and a bovine/human database with test sequences appended to the database. A KNIME workflow was used to process the identification files from the samples. Peptides identified from the test articles were aligned against the parent sequence of the test molecule. The output was used to determine the percentage of donors displaying MHC-II peptides from regions of the test molecule. Polypeptides comprising SEQ ID NOs:54, 49, 50, 29, 41, 45, 1, 22, 25 were tested in the MAPPs assay. […] Depending on the donors, up to three major clusters were observed, each slightly shifted from the others, altogether spanning residues 1-33.

[3] = male, Sprague Dawley, rat, plasma, iv, 201 nmol/kg, single intravenous dose 201 nmol/kg, individual animal
[4] = male, Sprague Dawley, rat, plasma, iv, 201 nmol/kg, single intravenous dose 201 nmol/kg, mean
[5] = male, Sprague Dawley, rat, plasma, sc, 201 nmol/kg, single subcutaneous dose 201 nmol/kg, individual animal
[6] = male, Sprague Dawley, rat, plasma, sc, 201 nmol/kg, single subcutaneous dose 201 nmol/kg, mean
[7] = single intravenous dose 201 nmol/kg, male Sprague Dawley rats, individual animal
[8] = single subcutaneous dose 201 nmol/kg, male Sprague Dawley rats, individual animal
[9] = donors displaying MHC-II peptides / donors tested
[10] = percentage of donors displaying MHC-II peptides
[11] = male, Sprague Dawley, rat, plasma, iv, 196 nmol/kg, single intravenous dose 196 nmol/kg, individual animal
[12] = male, Sprague Dawley, rat, plasma, iv, 196 nmol/kg, single intravenous dose 196 nmol/kg, mean
[13] = male, Sprague Dawley, rat, plasma, sc, 196 nmol/kg, single subcutaneous dose 196 nmol/kg, individual animal
[14] = male, Sprague Dawley, rat, plasma, sc, 196 nmol/kg, single subcutaneous dose 196 nmol/kg, mean
[15] = single intravenous dose 196 nmol/kg, male Sprague Dawley rats, individual animal
[16] = single subcutaneous dose 196 nmol/kg, male Sprague Dawley rats, individual animal

`CC[C@H](C)[C@H](NC)C(=O)N[C@H](C(=O)N[C@H](C(=O)N[C@@H](CO)C(=O)N[C@@H](CC(C)C)C(=O)N[C@@H](CC(=O)O)C(=O)N[C@H](C(=O)N1CCC[C@H]1C(=O)N[C@H](C(=O)NCC(=O)N[C@@](C)(CC(C)C)C(=O)N[C@@H](CC(C)C)C(=O)N[C@@H](CCC(N)=O)C(=O)N[C@@H](CCCCN)C(=O)N[C@@H](CC(C)C)C(=O)N[C@@H](CC(C)C)C(=O)N[C@@H](CCC(=O)O)C(=O)N[C@@H](CCC(N)=O)C(=O)N[C@@H](CCC(=O)O)C(=O)N[C@@H](CCCNC(=N)N)C(=O)N[C@@H](C)C(=O)N[C@@H](CCC(=O)O)C(=O)N[C@@H](CCCCN)C(=O)N[C@@H](C)C(=O)N[C@@H](CCCNC(=N)N)C(=O)N[C@@H](CCC(N)=O)C(=O)N[C@@H](CCC(N)=O)C(=O)N[C@@H](C)C(=O)N[C@@H](CCCCNC(=O)COCCOCCNC(=O)COCCOCCNC(=O)CC[C@H](NC(=O)CCCCCCCCCCCCCCCCCCC(=O)O)C(=O)O)C(=O)N[C@@H](CCC(=O)O)C(=O)N[C@@H](C)C(=O)N[C@@H](C)C(=O)N[C@@H](CCC(=O)O)C(=O)N[C@H](C(=O)N[C@@H](CC(C)C)C(=O)N[C@@H](C)C(=O)N[C@@H](CCC(N)=O)C(=O)N[C@H](C(N)=O)C(C)C)[C@@H](C)CC)[C@@H](C)CC)C(C)C)[C@@H](C)O)C(C)C` [SEQ ID NO: 50, (NMeI) VTSLDVPIG αMeL LQKLLEQERAEKARQQAK((2-[2-(2-Amino-ethoxy)-ethoxy]-acetyl)2-γE-CO-(CH2)18-CO2H)EAAEILAQV-NH2] (H-[NMeI]VTSLDVPIG[αMeL]LQKLLEQERAEKARQQAK([AEEA-AEEA-γGlu-C20 diacid])EAAEILAQV-NH2) showed a clearance [1, 3] of 3.37 mL/h/kg, a half-life [1, 3] of 20.3 h and a clearance [1, 4] of 2.93 mL/h/kg. It also gave a half-life [1, 4] of 19.2 h, a half-life [1, 5] of 19.7 h and a CL/F ([1]; male, Sprague Dawley, rat, plasma, sc, 201 nmol/kg, single subcutaneous dose 201 nmol/kg, individual animal, read-out: CL/F (converted)) of 7.55 mL/h/kg. It also gave a Tmax [1, 5] of 24 h, a half-life [1, 6] of 17.1 h and a CL/F ([1]; male, Sprague Dawley, rat, plasma, sc, 201 nmol/kg, single subcutaneous dose 201 nmol/kg, mean, read-out: CL/F (converted)) of 7.53 mL/h/kg. It also gave a Tmax [1, 6] of 24 h, an AUC0-inf ([1]; rat, plasma, sc, single subcutaneous dose 201 nmol/kg, male Sprague Dawley rats, mean, read-out: AUC0-inf) of 26.8 µM·h and a Cmax ([1]; rat, plasma, sc, single subcutaneous dose 201 nmol/kg, male Sprague Dawley rats, mean, read-out: Cmax) of 552 nM. The AUC0-inf ([1]; rat, plasma, single intravenous dose 201 nmol/kg, male Sprague Dawley rats, mean, read-out: AUC0-inf) was 69.2 µM·h, the C0 ([1]; rat, plasma, single intravenous dose 201 nmol/kg, male Sprague Dawley rats, mean, read-out: C0) was 5290 nM and the AUC0-inf [1, 7] was 59.6 µM·h and 74.2 µM·h and 73.9 µM·h. For the same compound, the C0 [1, 7] was 5560 nM and 4360 nM and 5960 nM, the CL [1, 7] was 2.71 mL/h/kg and 2.72 mL/h/kg and the T1/2 [1, 7] was 18.3 h and 19.0 h. The AUC0-inf [1, 8] was 26.7 µM·h and 25.1 µM·h and 28.7 µM·h, the CL/F [1, 8] was 8.03 mL/h/kg and 7.01 mL/h/kg and the Cmax [1, 8] was 577 nM and 460 nM and 618 nM. For the same compound, the T1/2 [1, 8] was 14.9 h and 16.7 h, the “MAPPS Assay >10 donors with diverse MHC” value [2, 9] was 3/10 and the “peptides displayed on MHC-II complexes” value [2] was “at least one peptide cluster on MHC-II complexes in a subset of donors”. For the same compound, the “immunogenicity compared with SEQ ID NO:54” value [2] was “substantial improvements in immunogenicity over a compound comprising SEQ ID NO:54” and the “MAPPS Assay >10 donors with diverse MHC” value [2, 10] was 30%.

For `CC[C@H](C)[C@H](NC(C)=O)C(=O)N[C@H](C(=O)N[C@H](C(=O)N[C@@H](CO)C(=O)N[C@@](C)(CC(C)C)C(=O)N[C@@H](CC(=O)O)C(=O)N[C@@H](C(=O)N1CCC[C@H]1C(=O)N[C@H](C(=O)NC(C)(C)C(=O)N[C@@](C)(CC(C)C)C(=O)N[C@@H](CC(C)C)C(=O)N[C@@H](CCC(N)=O)C(=O)N[C@H](C(=O)N[C@@H](CCCCN)C(=O)N[C@@H](CC(C)C)C(=O)N[C@@H](CCC(=O)O)C(=O)N[C@@H](CCC(N)=O)C(=O)N[C@@H](CCC(=O)O)C(=O)N[C@@H](CCCNC(=N)N)C(=O)N[C@@H](C)C(=O)N[C@@H](CCC(=O)O)C(=O)N[C@@H](CCCCN)C(=O)N[C@@H](C)C(=O)N[C@@H](CCCNC(=N)N)C(=O)N[C@@H](CCC(N)=O)C(=O)N[C@@H](CCC(N)=O)C(=O)N[C@@H](C)C(=O)N[C@@H](CCCCNC(=O)COCCOCCNC(=O)COCCOCCNC(=O)CC[C@H](NC(=O)CCCCCCCCCCCCCCCCCCC(=O)O)C(=O)O)C(=O)N[C@@H](CCC(=O)O)C(=O)N[C@@H](CC(N)=O)C(=O)N[C@H](C(=O)N[C@@H](CCC(=O)O)C(=O)N[C@H](C(=O)N[C@@H](CC(C)C)C(=O)N[C@@H](C)C(=O)N[C@@H](CCC(N)=O)C(=O)N[C@H](C(N)=O)C(C)C)[C@@H](C)CC)[C@@H](C)O)[C@@H](C)CC)[C@@H](C)O)C(C)C)[C@@H](C)O)C(C)C` [SEQ ID NO: 41, Ac-IVTS αMeL D (D-Val) PT Aib αMeL LQIKLEQERAEKARQQAK((2-[2-(2-Amino-ethoxy)-ethoxy]-acetyl)2-γE-CO-(CH2)18-CO2H)ENTEILAQV-NH2] (Ac-IVTS[αMeL]D[dV]PT[Aib][αMeL]LQIKLEQERAEKARQQAK([AEEA-AEEA-γGlu-C20 diacid])ENTEILAQV-NH2), the clearance [1, 11] was 3.91 mL/h/kg, the half-life [1, 11] was 48.4 h and the clearance [1, 12] was 3.82 mL/h/kg. For the same compound, the half-life [1, 12] was 45.7 h, the half-life [1, 13] was 43.8 h and the CL/F ([1]; male, Sprague Dawley, rat, plasma, sc, 196 nmol/kg, single subcutaneous dose 196 nmol/kg, individual animal, read-out: CL/F (converted)) was 5.04 mL/h/kg. It also gave a Tmax [1, 13] of 24 h, a half-life [1, 14] of 39.3 h and a CL/F ([1]; male, Sprague Dawley, rat, plasma, sc, 196 nmol/kg, single subcutaneous dose 196 nmol/kg, mean, read-out: CL/F (converted)) of 4.47 mL/h/kg. For the same compound, the Tmax [1, 14] was 24 h, the AUC0-inf ([1]; rat, plasma, sc, single subcutaneous dose 196 nmol/kg, male Sprague Dawley rats, mean, read-out: AUC0-inf) was 48.1 µM·h and the Cmax ([1]; rat, plasma, sc, single subcutaneous dose 196 nmol/kg, male Sprague Dawley rats, mean, read-out: Cmax) was 550 nM. For the same compound, the AUC0-inf ([1]; rat, plasma, single intravenous dose 196 nmol/kg, male Sprague Dawley rats, mean, read-out: AUC0-inf) was 52.1 µM·h, the C0 ([1]; rat, plasma, single intravenous dose 196 nmol/kg, male Sprague Dawley rats, mean, read-out: C0) was 1190 nM and the AUC0-inf [1, 15] was 50.1 µM·h and 60.6 µM·h and 45.5 µM·h. For the same compound, the C0 [1, 15] was 1350 nM and 1620 nM and 586 nM, the CL [1, 15] was 3.23 mL/h/kg and 4.31 mL/h/kg and the T1/2 [1, 15] was 49.8 h and 39.0 h. For the same compound, the AUC0-inf [1, 16] was 43.1 µM·h and 56.2 µM·h and 45 µM·h, the CL/F [1, 16] was 3.73 mL/h/kg and 4.63 mL/h/kg and the Cmax [1, 16] was 467 nM and 645 nM and 539 nM. For the same compound, the T1/2 [1, 16] was 36.5 h and 37.7 h, the “MAPPS Assay >10 donors with diverse MHC” value [2, 9] was 0/10 and the “peptides displayed on MHC-II complexes” value [2] was “no peptides displayed on MHC-II complexes”. The “immunogenicity compared with SEQ ID NO:54” value [2] was “substantial improvements in immunogenicity over a compound comprising SEQ ID NO:54” and the “MAPPS Assay >10 donors with diverse MHC” value [2, 10] was 0%.
